Reference: patent US10941114B2, “Small molecule lipid II inhibitors” (University Of Maryland, Baltimore, priority 2015, dated 2021)

How the values were obtained:
Staphylococcus aureus = test: Antibacterial activity assay (MIC, broth dilution); assay type: cell-based; settings: for MIC: Staphylococcus aureus, Table 21, read-out: Staphylococcus aureus MIC; for MIC SA USA300: Staphylococcus aureus USA 300 strain, broth microdilution
Enterococcus faecalis = test: Antibacterial activity assay (MIC, broth dilution); assay type: cell-based; settings: for MIC: Enterococcus faecalis, Table 21, read-out: Escherichia feacalis MIC; for MIC EF 15951: Enterococcus faecalis 15951, broth microdilution

Molecule	MIC (Staphylococcus aureus)	MIC (Enterococcus faecalis)	MIC SA USA300 (Staphylococcus aureus)	MIC EF 15951 (Enterococcus faecalis)
CN(CCC#N)c1ccc(/C=C/c2cc(-c3ccc(Br)cc3)cc(-c3ccc(Br)cc3)[o+]2)cc1.F[B-](F)(F)F	> 64 µg/mL	> 64 µg/mL		
CN(C)c1ccc(/C=C/c2cc(-c3ccc(F)c(F)c3)cc(-c3ccc(F)c(F)c3)[o+]2)cc1.F[B-](F)(F)F	> 64 µg/mL	> 64 µg/mL		
CN(CCC#N)c1ccc(/C=C/c2cc(-c3ccc(I)cc3)cc(-c3ccc(I)cc3)[o+]2)cc1.F[B-](F)(F)F	> 64 µg/mL	> 64 µg/mL		
CN(CCC#N)c1ccc(/C=C/c2cc(-c3ccc(C(F)(F)F)cc3)cc(-c3ccc(C(F)(F)F)cc3)[o+]2)cc1.F[B-](F)(F)F	> 64 µg/mL	> 64 µg/mL		
CN(CCC#N)c1ccc(/C=C/c2cc(-c3ccc(F)c(F)c3)cc(-c3ccc(F)c(F)c3)[o+]2)cc1.F[B-](F)(F)F	> 64 µg/mL	> 64 µg/mL		
CCN(CC)c1ccc(/C=C/c2cc(-c3ccc(F)cc3)cc(-c3ccc(F)cc3)[o+]2)c(O)c1.F[B-](F)(F)F	64 µg/mL	> 64 µg/mL		
CCN(CCC#N)c1ccc(/C=C/c2cc(-c3ccc(Br)cc3)cc(-c3ccc(Br)cc3)[o+]2)c(C)c1.F[B-](F)(F)F	> 64 µg/mL	> 64 µg/mL		
CCN(CCC#N)c1ccc(/C=C/c2cc(-c3ccc(F)cc3)cc(-c3ccc(F)cc3)[o+]2)c(C)c1.F[B-](F)(F)F	> 64 µg/mL	> 64 µg/mL		
CCCN1CCCc2cc(/C=C/c3cc(-c4ccc(Br)cc4)cc(-c4ccc(Br)cc4)[o+]3)ccc21.F[B-](F)(F)F	> 64 µg/mL	> 64 µg/mL		
CCCN1CCCc2cc(/C=C/c3cc(-c4ccc(F)cc4)cc(-c4ccc(F)cc4)[o+]3)ccc21.F[B-](F)(F)F	> 64 µg/mL	> 64 µg/mL		
CN(C)c1ccc(/C=C/c2cc(-c3ccc(F)cc3)cc(-c3ccc(F)cc3)[n+]2C)cc1.[I-] [Compound 2jc39-1, (E)-2-(4-(dimethylamino)styryl)-4,6-bis(4-fluorophenyl)-1-methylpyridin-1-ium iodide salt]			4 µg/mL	4 µg/mL
CN(CCC#N)c1ccc(/C=C/c2cc(-c3ccc(F)cc3)cc(-c3ccc(F)cc3)[n+]2C)cc1.[I-] [Compound 2jc39-2, (E)-2-(4-((2-cyanoethyl)(methyl)amino)styryl)-4,6-bis(4-fluorophenyl)-1-methylpyridin-1-ium iodide salt]			16 µg/mL	16 µg/mL
CN(C)c1ccc(/C=C/c2cc(-c3ccc(F)cc3)cc(-c3ccc(Br)cc3)[n+]2C)cc1.[I-] [Compound 2jc39-3, (E)-2-(4-bromophenyl)-6-(4-(dimethylamino)styryl)-4-(4-fluorophenyl)-1-methylpyridin-1-ium iodide salt]			4 µg/mL	4 µg/mL
CN(CCC#N)c1ccc(/C=C/c2cc(-c3ccc(F)cc3)cc(-c3ccc(Br)cc3)[n+]2C)cc1.[I-] [Compound 2jc39-4]			16 µg/mL	16 µg/mL
CN(C)c1ccc(/C=C/c2cc(-c3ccc(Cl)cc3)cc(-c3ccc(F)cc3)[n+]2C)cc1.[I-] [Compound 2jc43-1, (E)-4-(4-chlorophenyl)-2-(4-(dimethylamino)styryl)-6-(4-fluorophenyl)-1-methylpyridin-1-ium iodide salt]			4 µg/mL	2 µg/mL
CN(CCC#N)c1ccc(/C=C/c2cc(-c3ccc(Cl)cc3)cc(-c3ccc(F)cc3)[n+]2C)cc1.[I-] [Compound 2jc43-2, (E)-4-(4-chlorophenyl)-2-(4-((2-cyanoethyl)(methyl)amino)styryl)-6-(4-fluorophenyl)-1-methylpyridin-1-ium iodide salt]			2 µg/mL	2 µg/mL
CN(C)c1ccc(/C=C/c2cc(-c3ccc(Cl)cc3)cc(-c3ccc(Br)cc3)[n+]2C)cc1.[I-] [Compound 2jc43-3, (E)-2-(4-bromophenyl)-4-(4-chlorophenyl)-6-(4-(dimethylamino)styryl)-1-methylpyridin-1-ium iodide salt]			2 µg/mL	2 µg/mL
CN(CCC#N)c1ccc(/C=C/c2cc(-c3ccc(Cl)cc3)cc(-c3ccc(Br)cc3)[n+]2C)cc1.[I-] [Compound 2jc43-4, (E)-2-(4-bromophenyl)-4-(4-chlorophenyl)-6-(4-((2-cyanoethyl)(methyl)amino)styryl)-1-methylpyridin-1-ium iodide salt]			32 µg/mL	16 µg/mL
CN(C)c1ccc(/C=C/c2cc(-c3ccc(N(C)C)cc3)cc(-c3ccc(F)cc3)[n+]2C)cc1.[I-] [Compound 3jc01-1, (E)-4-(4-(dimethylamino)phenyl)-2-(4-(dimethylamino)styryl)-6-(4-fluorophenyl)-1-methylpyridin-1-ium iodide salt]			2 µg/mL	1 µg/mL
CN(C)c1ccc(-c2cc(/C=C/c3ccc(N(C)CCC#N)cc3)[n+](C)c(-c3ccc(F)cc3)c2)cc1.[I-] [Compound 3jc01-2, (E)-2-(4-((2-cyanoethyl)(methyl)amino)styryl)-4-(4-(dimethylamino)phenyl)-6-(4-fluorophenyl)-1-methylpyridin-1-ium iodide salt]			32 µg/mL	16 µg/mL
CN(C)c1ccc(/C=C/c2cc(-c3ccc(N(C)C)cc3)cc(-c3ccc(Br)cc3)[n+]2C)cc1.[I-] [Compound 3jc01-3, (E)-2-(4-bromophenyl)-4-(4-(dimethylamino)phenyl)-6-(4-(dimethylamino)styryl)-1-methylpyridin-1-ium iodide salt]			1 µg/mL	1 µg/mL
CN(C)c1ccc(-c2cc(/C=C/c3ccc(N(C)CCC#N)cc3)[n+](C)c(-c3ccc(Br)cc3)c2)cc1.[I-] [Compound 3jc01-4, (E)-2-(4-bromophenyl)-6-(4-((2-cyanoethyl)(methyl)amino)styryl)-4-(4-(dimethylamino)phenyl)-1-methylpyridin-1-ium iodide salt]			32 µg/mL	32 µg/mL
CN(CCC#N)c1ccc(/C=C/c2cc(-c3ccc(N(C)CCC#N)cc3)cc(-c3ccc(F)cc3)[n+]2C)cc1.[I-] [Compound 3jc01-6, (E)-4-(4-((2-cyanoethyl)(methyl)amino)phenyl)-2-(4-((2-cyanoethyl)(methyl)amino)styryl)-6-(4-fluorophenyl)-1-methylpyridin-1-ium iodide salt]			1 µg/mL	8 µg/mL
CN(C)c1ccc(/C=C/c2cc(-c3ccc(N(C)CCC#N)cc3)cc(-c3ccc(Br)cc3)[n+]2C)cc1.[I-] [Compound 3jc01-7]			1 µg/mL	2 µg/mL
CN(CCC#N)c1ccc(/C=C/c2cc(-c3ccc(N(C)CCC#N)cc3)cc(-c3ccc(Br)cc3)[n+]2C)cc1.[I-] [Compound 3jc01-8]			1 µg/mL	2 µg/mL
CN(CCC#N)c1ccc(/C=C/c2cc(-c3ccc(F)cc3)cc(-c3ccc(F)cc3)[o+]2)cc1.F[B-](F)(F)F [drawing 385]	> 64 µg/mL	> 64 µg/mL		
(E)-4-(4-((2-cyanoethyl)(methyl)amino)phenyl)-2-(4-(dimethylamino)styryl)-6-(4-fluorophenyl)-1-methylpyridin-1-ium iodide salt [Compound 3jc01-5]			1 µg/mL	4 µg/mL
